Results as given in US12350250B2, “Aggrelytes for treating ocular conditions” (The Regents of the University of Colorado, a Body Corporate, priority 2022, dated 2025).

Legend:
mouse lenses [1] = test: Stiffness of ex vivo mouse lenses (Example 18); set-up: species or system mouse (C57BL/6J); conditions: 1 mM, 24 hours, ex vivo mouse lenses (3-6 months old); not significant
Procedure: In this example, the lenses were dissected from the eyes of mice (C57BL/6J, 3-6 months old, Jackson Laboratories, Stock No. 000664) by a posterior approach and incubated without (“Control”) or with Aggrelyte-2 or Aggrelyte-2A (1 mM) for 24 hours in serum-free and phenol-red-free MEM (297 mOsm) at 37° C. Lens stiffness was measured as in Example 10, except that the load was applied at 50 mg increments.

human lenses [2] = test: Acetylated proteins in ex vivo treated human lenses (Example 23); conditions: 250 μM, 48 hours
Procedure: Each lens from Example 21 was decapsulated and homogenized in N2-bubbled 50 mM phosphate buffer, pH 7.4 (1.5 mL per lens), in a hand-held glass homogenizer. The sample was processed and evaluated for protein content as described in Example 19.

mouse lenses [3] = test: Acetylated proteins in ex vivo treated mouse lenses (Western blot, Example 19); conditions: 1 mM, 24 hours
Procedure: The lenses from Example 18 were homogenized using N2-bubbled 50 mM phosphate buffer, pH 7.4 (0.4 mL per lens), in a hand-held motorized homogenizer. The homogenate was centrifuged at 20,000×g for 20 minutes at 4° C. The resulting supernatant was collected, and its protein content was measured using BCA Protein Assay Kit using BSA as the standard. The soluble protein was subjected to 12% SDS-PAGE under denaturing conditions and the proteins were electrophoretically transferred to a nitrocellulose membrane and blocked with 5% nonfat dry milk. The membrane was then incubated with a monoclonal antibody against N-acetyllysine (AcK antibody @ 1:5,000 dilution; Cell Signaling Technology Catalog #9681S) for 16 hours, followed by horseradish peroxidase (HRP)-conjugated goat anti-mouse IgG (1:5,000 dilution; Cell Signaling Technology Catalog #7076S) for 1 hour. Chemiluminescence was detected using the Enhanced Chemiluminescence Detection Kit. The membrane was stained with Ponceau-S to visualize the proteins and normalize acetyllysine (AcK)-bearing protein to total protein load.

mouse lenses [4] = conditions: 40 mM topical twice daily for four weeks, mice
Procedure: A 40 mM solution of Aggrelyte-2A was prepared in a liquid formulation that consisted of benzalkonium chloride (0.001%), NaH2PO4·H2O (0.269%), Na2HPO4 (0.433%), hypromellose (0.2%), and NaCl (0.5%). Aggrelyte-2A in the formulation (5 μl) was applied to the right eye twice daily (8 AM and 4 PM) to unanesthetized animals for four weeks. The left eye received only the formulation (5 μl) (“Vehicle” or “Control”). After treatment, the animals were euthanized by CO2 asphyxiation. The eyes were enucleated, and the lenses were removed immediately by a posterior approach and placed in fresh PBS. The stiffness of the lenses was measured using a computer-controlled lens squeezer. The AcK-bearing protein levels of the lenses were measured by Western blotting. The protein-thiol content of the lenses was measured using a Thiol Quantification Assay Kit from Abcam, using reduced GSH as the standard.

human lenses [5] = test: Stiffness of ex vivo human lenses (Example 22); conditions: 250 μM, 48 hours
Procedure: To test the effects of Aggrelyte-2 and Aggrelyte-2A on human lenses (age: 47-67 years), lenses were incubated in media containing freshly dissolved aggrelyte (250 μM) for 48 hours, with aggrelyte replacement after 24 hours. One lens from each donor pair was treated with aggrelyte, while the other was used as the control. After incubation, lens stiffness was measured, as described above in Example 20.

WI proteins (human lens) = test: Relationship between protein acetylation and solubility: WI proteins treated with acetic anhydride or Aggrelyte-2; format: biochemical
Excerpt: To determine whether protein acetylation alone contributed to lens protein solubility, the soluble protein levels in WI proteins treated with acetic anhydride and Aggrelyte-2 were compared.

αA-crystallin (αAC) = molecular target: T1, αA-crystallin (αAC) (Homo sapiens, UniProt P02489); test: Relative protein acetylation capability on recombinant αAC; format: biochemical; conditions: 500 μM acetylating agent, αAC 3 mg/mL, 24 hours, 37° C.
T1 sequence (P02489 1-173): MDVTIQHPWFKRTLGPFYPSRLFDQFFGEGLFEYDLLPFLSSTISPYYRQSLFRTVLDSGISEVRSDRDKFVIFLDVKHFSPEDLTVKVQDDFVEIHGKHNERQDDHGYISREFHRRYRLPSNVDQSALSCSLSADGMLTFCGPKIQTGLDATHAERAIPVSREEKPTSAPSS
Procedure: The relative ability of Aggrelyte-2 to acetylate lysine residues in proteins was investigated using αA-crystallin (αAC). Human recombinant αAC (3 mg/mL PBS) was incubated in 50 mM sodium phosphate buffer, pH 7.4, for 24 hours at 37° C. while shaking without or with 500 μM acetylating agent (Aggrelyte-2, acetyl-CoA, acetic anhydride, or aspirin), dialyzed against PBS for 24 hours at 4° C.

## COC(=O)[C@H](CSC(C)=O)NC(=O)CC(C)(C)C [Aggrelyte-2A, methyl S-acetyl-N-(3,3,-dimethylbutanoyl)-L-cysteinate]
Mouse lenses [1]
  reduction of lens stiffness: approximately 20%
Human lenses [2]
  increase in density of acetyl-bearing proteins compared to control lenses: approximately 5%
Mouse lenses [3]
  density of acetyl-bearing proteins, % increase compared to Aggrelyte-2: at least 50%
  density of acetyl-bearing proteins, fold increase compared to untreated control lenses: 5 fold
Mouse lenses [4]
  increase in protein thiol content compared to vehicle-treated lenses: approximately 8%
Mouse lenses [4]; 200-mg load
  reduction of lens stiffness compared to vehicle-treated lenses: approximately 12%
Mouse lenses [4]; Western blot
  increase in density of AcK-bearing proteins compared to vehicle-treated lenses: approximately 10%
Mouse lenses [4]; relative to 200-mg load result
  reduction in stiffness at 400- and 500-mg loads: similar
Human lenses [5]; ex vivo human lenses (47-67 years)
  reduction of lens stiffness compared to vehicle-treated lenses: approximately 15%
Human lenses [5]; ex vivo human lenses, 2000-mg load (p<0.05)
  significance of stiffness reduction at 2000-mg load: significant

## CC(=O)OC(C)=O [acetic anhydride]
WI proteins (human lens)
  acetylation of WI proteins, comparison: better acetylating agent than Aggrelyte-2
αA-crystallin (αAC)
  acetylating potency, fold higher than Aggrelyte-2: ~21 fold
  rank order of acetylating agents: most potent acetylating agent

## CC(=O)SCCNC(=O)CCNC(=O)[C@H](O)C(C)(C)COP(=O)(O)OP(=O)(O)OC[C@H]1O[C@@H](n2cnc3c(N)ncnc32)[C@H](O)[C@@H]1OP(=O)(O)O [acetyl-CoA]
αA-crystallin (αAC)
  rank order of acetylating agents: followed by Aggrelyte-2, aspirin, and acetyl-CoA

## CC(=O)Oc1ccccc1C(=O)O [aspirin]
αA-crystallin (αAC)
  rank order of acetylating agents: followed by Aggrelyte-2, aspirin, and acetyl-CoA
